Test results: US12404295B2, “(Hetero)aryl-methyl-thio-beta-D-galactopyranoside derivatives” (Idorsia Pharmaceuticals Ltd, priority 2019, dated 2025)

Key:
[1] = target: human Gal-3 (hGal-3) (Homo sapiens (Human), UniProt P17931); assay: competitive binding assay: biotinylated hGal-3 binding to microplate-adsorbed asialofetuin (ASF); details: Gal-3 inhibition; binding of biotinylated hGal-3 to ASF; mean values; read-out: IC50
In short: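 Serially diluted compounds compete with biotinylated hGal-3 binding to adsorbed asialofetuin (3 hours, 4° C). After washing, streptavidin-peroxidase at 80 ng/mL for 1 hour at 4° C, with ABTS colour read-out. IC50 values are averaged over repeated runs.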

[2] = target: human Gal-1 (hGal-1) (Homo sapiens (Human), UniProt P09382); assay: competitive binding assay: biotinylated hGal-1 binding to microplate-adsorbed asialofetuin (ASF); details: Table 15; read-out: IC50 (Galectin-1 inhibition)
Procedure: Inhibition data of the epimers R and S of selected Examples are also listed.
Evaluation of Compound Inhibitory Activity (IC50)
The inhibitory activity of compounds is determined in competitive binding assays. This spectrophotometric assay measures the binding of biotinylated human Gal-3 (hGal-3) or human Gal-1 (hGal-1), respectively, to a microplate-adsorbed glycoprotein, asialofetuin (ASF) (Proc Natl Acad Sci USA. 2013 Mar. 26; 110(13):5052-7.).
Briefly, compounds are serially diluted in DMSO (working dilutions). ASF-coated 384 well plates are supplemented with 22.8 μL/well of biotinylated hGal-3 or hGal-1 in assay buffer (i.e. 300-1000 ng/mL biotinylated hGal-3 or hGal-1) to which 1.2 μL of compound working dilutions are added and mixed.
Plates are incubated for 3 hours at 4° C., then washed with cold assay buffer (3×50 uL), incubated for 1 hour with 25 μL/well of a streptavidin-peroxidase solution (diluted in assay buffer to 80 ng/mL) at 4° C., followed by further washing steps with assay buffer (3×50 uL). Finally, 25 μL/well of ABTS substrate is added.
The calculated IC50 values may fluctuate depending on the daily assay performance. Fluctuations of this kind are known to those skilled in the art. IC50 values from several measurements are given as mean values.

Chain of human Gal-1 (hGal-1) (P09382 whole entry): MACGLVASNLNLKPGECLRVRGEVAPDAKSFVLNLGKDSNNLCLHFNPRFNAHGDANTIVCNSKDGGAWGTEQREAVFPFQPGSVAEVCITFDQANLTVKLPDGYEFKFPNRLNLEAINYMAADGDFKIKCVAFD
Chain of human Gal-3 (hGal-3) (P17931 whole entry): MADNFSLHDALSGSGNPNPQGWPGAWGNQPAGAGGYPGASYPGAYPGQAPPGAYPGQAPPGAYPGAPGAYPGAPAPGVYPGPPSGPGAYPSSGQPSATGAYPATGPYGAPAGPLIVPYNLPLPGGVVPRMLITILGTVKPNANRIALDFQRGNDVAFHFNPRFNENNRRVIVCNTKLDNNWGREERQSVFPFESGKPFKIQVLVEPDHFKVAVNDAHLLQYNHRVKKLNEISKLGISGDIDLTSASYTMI

Structure (SMILES)	IC50 [1]	IC50 [2]
CC(C)(O)C(S[C@@H]1O[C@H](CO)[C@H](O)[C@H](n2cc(-c3cc(F)c(F)c(F)c3)nn2)[C@H]1O)c1ccccc1CCO (stereo partly drawn) [Example 2.31.108., (2S,3R,4S,5R,6R)-2-((2-Hydroxy-1-(2-(2-hydroxyethyl)phenyl)-2-methylpropyl)thio)-6-(hydroxymethyl)-4-(4-(3,4,5-trifluorophenyl)-1H-1,2,3-triazol-1-yl)tetrahydro-2H-pyran-3,5-diol]	380 nM	21200 nM
CC(C)(O)[C@H](S[C@@H]1O[C@H](CO)[C@H](O)[C@H](n2cc(-c3cc(F)c(F)c(F)c3)nn2)[C@H]1O)c1ccccc1CCO [Example 2.31.108R., (2S,3R,4S,5R,6R)-2-(((R)-2-Hydroxy-1-(2-(2-hydroxyethyl)phenyl)-2-methylpropyl)thio)-6-(hydroxymethyl)-4-(4-(3,4,5-trifluorophenyl)-1H-1,2,3-triazol-1-yl)tetrahydro-2H-pyran-3,5-diol]	270 nM	390 nM
CC(C)(O)[C@@H](S[C@@H]1O[C@H](CO)[C@H](O)[C@H](n2cc(-c3cc(F)c(F)c(F)c3)nn2)[C@H]1O)c1ccccc1CCO [Example 2.31.108S., (2S,3R,4S,5R,6R)-2-(((S)-2-Hydroxy-1-(2-(2-hydroxyethyl)phenyl)-2-methylpropyl)thio)-6-(hydroxymethyl)-4-(4-(3,4,5-trifluorophenyl)-1H-1,2,3-triazol-1-yl)tetrahydro-2H-pyran-3,5-diol]	8100 nM	25800 nM
CCCCCc1ccccc1C(S[C@@H]1O[C@H](CO)[C@H](O)[C@H](n2cc(-c3cc(F)c(F)c(F)c3)nn2)[C@H]1O)C(C)(C)O (stereo partly drawn) [Example 2.31.109., (2S,3R,4S,5R,6R)-2-((2-Hydroxy-2-methyl-1-(2-pentylphenyl)propyl)thio)-6-(hydroxymethyl)-4-(4-(3,4,5-trifluorophenyl)-1H-1,2,3-triazol-1-yl)tetrahydro-2H-pyran-3,5-diol]	540 nM	3230 nM
CC(C)(O)C(S[C@@H]1O[C@H](CO)[C@H](O)[C@H](n2cc(-c3cc(F)c(F)c(F)c3)nn2)[C@H]1O)c1ccccc1-c1ccccc1 (stereo partly drawn) [Example 2.31.110., (2S,3R,4S,5R,6R)-2-((1-([1,1′-Biphenyl]-2-yl)-2-hydroxy-2-methylpropyl)thio)-6-(hydroxymethyl)-4-(4-(3,4,5-trifluorophenyl)-1H-1,2,3-triazol-1-yl)tetrahydro-2H-pyran-3,5-diol]	180 nM	400 nM
CC(C)(O)[C@H](S[C@@H]1O[C@H](CO)[C@H](O)[C@H](n2cc(-c3cc(F)c(F)c(F)c3)nn2)[C@H]1O)c1ccccc1-c1ccccc1 [Example 2.31.110R., (2S,3R,4S,5R,6R)-2-(((R)-1-([1,1′-Biphenyl]-2-yl)-2-hydroxy-2-methylpropyl)thio)-6-(hydroxymethyl)-4-(4-(3,4,5-trifluorophenyl)-1H-1,2,3-triazol-1-yl)tetrahydro-2H-pyran-3,5-diol]	220 nM	280 nM
CC(C)(O)[C@@H](S[C@@H]1O[C@H](CO)[C@H](O)[C@H](n2cc(-c3cc(F)c(F)c(F)c3)nn2)[C@H]1O)c1ccccc1-c1ccccc1 [Example 2.31.110S., (2S,3R,4S,5R,6R)-2-(((S)-1-([1,1′-Biphenyl]-2-yl)-2-hydroxy-2-methylpropyl)thio)-6-(hydroxymethyl)-4-(4-(3,4,5-trifluorophenyl)-1H-1,2,3-triazol-1-yl)tetrahydro-2H-pyran-3,5-diol]	4900 nM	16700 nM
CC(C)(O)[C@H](S[C@@H]1O[C@H](CO)[C@H](O)[C@H](n2cc(-c3cc(F)c(F)c(F)c3)nn2)[C@H]1O)c1ccccc1Cl [Example 2.31.111R., (2S,3R,4S,5R,6R)-2-(((R)-1-(2-Chlorophenyl)-2-hydroxy-2-methylpropyl)thio)-6-(hydroxymethyl)-4-(4-(3,4,5-trifluorophenyl)-1H-1,2,3-triazol-1-yl)tetrahydro-2H-pyran-3,5-diol]	380 nM	3190 nM
CC(C)(O)[C@@H](S[C@@H]1O[C@H](CO)[C@H](O)[C@H](n2cc(-c3cc(F)c(F)c(F)c3)nn2)[C@H]1O)c1ccccc1Cl [Example 2.31.111S., (2S,3R,4S,5R,6R)-2-(((S)-1-(2-Chlorophenyl)-2-hydroxy-2-methylpropyl)thio)-6-(hydroxymethyl)-4-(4-(3,4,5-trifluorophenyl)-1H-1,2,3-triazol-1-yl)tetrahydro-2H-pyran-3,5-diol]	4300 nM	30900 nM
CC(C)(O)C(S[C@@H]1O[C@H](CO)[C@H](O)[C@H](n2cc(-c3cc(F)c(F)c(F)c3)nn2)[C@H]1O)c1ccccc1C(F)(F)F (stereo partly drawn) [Example 2.31.112., (2S,3R,4S,5R,6R)-2-((2-Hydroxy-2-methyl-1-(2-(trifluoromethyl)phenyl)propyl)thio)-6-(hydroxymethyl)-4-(4-(3,4,5-trifluorophenyl)-1H-1,2,3-triazol-1-yl)tetrahydro-2H-pyran-3,5-diol]	250 nM	5230 nM
CC(C)(O)[C@H](S[C@@H]1O[C@H](CO)[C@H](O)[C@H](n2cc(-c3cc(F)c(F)c(F)c3)nn2)[C@H]1O)c1ccccc1C(F)(F)F [Example 2.31.112R., (2S,3R,4S,5R,6R)-2-(((R)-2-Hydroxy-2-methyl-1-(2-(trifluoromethyl)phenyl)propyl)thio)-6-(hydroxymethyl)-4-(4-(3,4,5-trifluorophenyl)-1H-1,2,3-triazol-1-yl)tetrahydro-2H-pyran-3,5-diol]	290 nM	2610 nM
CC(C)(O)[C@@H](S[C@@H]1O[C@H](CO)[C@H](O)[C@H](n2cc(-c3cc(F)c(F)c(F)c3)nn2)[C@H]1O)c1ccccc1C(F)(F)F [Example 2.31.112S., (2S,3R,4S,5R,6R)-2-(((S)-2-Hydroxy-2-methyl-1-(2-(trifluoromethyl)phenyl)propyl)thio)-6-(hydroxymethyl)-4-(4-(3,4,5-trifluorophenyl)-1H-1,2,3-triazol-1-yl)tetrahydro-2H-pyran-3,5-diol]	7070 nM	26400 nM
CC(C)(O)C(S[C@@H]1O[C@H](CO)[C@H](O)[C@H](n2cc(-c3cc(F)c(F)c(F)c3)nn2)[C@H]1O)c1cccc(Cl)c1Cl (stereo partly drawn) [Example 2.31.113., (2S,3R,4S,5R,6R)-2-((1-(2,3-Dichlorophenyl)-2-hydroxy-2-methylpropyl)thio)-6-(hydroxymethyl)-4-(4-(3,4,5-trifluorophenyl)-1H-1,2,3-triazol-1-yl)tetrahydro-2H-pyran-3,5-diol]	460 nM	3750 nM
Cc1c(F)cccc1C(S[C@@H]1O[C@H](CO)[C@H](O)[C@H](n2cc(-c3cc(F)c(F)c(F)c3)nn2)[C@H]1O)C(C)(C)O (stereo partly drawn) [Example 2.31.114., (2S,3R,4S,5R,6R)-2-((1-(3-Fluoro-2-methylphenyl)-2-hydroxy-2-methylpropyl)thio)-6-(hydroxymethyl)-4-(4-(3,4,5-trifluorophenyl)-1H-1,2,3-triazol-1-yl)tetrahydro-2H-pyran-3,5-diol]	130 nM	2270 nM
Cc1c(F)cccc1[C@H](S[C@@H]1O[C@H](CO)[C@H](O)[C@H](n2cc(-c3cc(F)c(F)c(F)c3)nn2)[C@H]1O)C(C)(C)O [Example 2.31.114S., (2S,3R,4S,5R,6R)-2-(((S)-1-(3-Fluoro-2-methylphenyl)-2-hydroxy-2-methylpropyl)thio)-6-(hydroxymethyl)-4-(4-(3,4,5-trifluorophenyl)-1H-1,2,3-triazol-1-yl)tetrahydro-2H-pyran-3,5-diol]	5400 nM	40900 nM
CC(C)(O)C(S[C@@H]1O[C@H](CO)[C@H](O)[C@H](n2cc(-c3cc(F)c(F)c(F)c3)nn2)[C@H]1O)c1cccc2ccccc12 (stereo partly drawn) [Example 2.31.115., (2S,3R,4S,5R,6R)-2-((2-Hydroxy-2-methyl-1-(naphthalen-1-yl)propyl)thio)-6-(hydroxymethyl)-4-(4-(3,4,5-trifluorophenyl)-1H-1,2,3-triazol-1-yl)tetrahydro-2H-pyran-3,5-diol]	180 nM	1390 nM
CC(C)(O)[C@H](S[C@@H]1O[C@H](CO)[C@H](O)[C@H](n2cc(-c3cc(F)c(F)c(F)c3)nn2)[C@H]1O)c1cccc2ccccc12 [Example 2.31.115R., (2S,3R,4S,5R,6R)-2-(((R)-2-Hydroxy-2-methyl-1-(naphthalen-1-yl)propyl)thio)-6-(hydroxymethyl)-4-(4-(3,4,5-trifluorophenyl)-1H-1,2,3-triazol-1-yl)tetrahydro-2H-pyran-3,5-diol]	170 nM	580 nM
CC(C)(O)[C@@H](S[C@@H]1O[C@H](CO)[C@H](O)[C@H](n2cc(-c3cc(F)c(F)c(F)c3)nn2)[C@H]1O)c1cccc2ccccc12 [Example 2.31.115S., (2S,3R,4S,5R,6R)-2-(((S)-2-Hydroxy-2-methyl-1-(naphthalen-1-yl)propyl)thio)-6-(hydroxymethyl)-4-(4-(3,4,5-trifluorophenyl)-1H-1,2,3-triazol-1-yl)tetrahydro-2H-pyran-3,5-diol]	10300 nM	47900 nM
